Measurements: US20040067998A1, “Antifungal and/or antiparasitic pharmaceutical composition and novel indole derivatives as active principle of such a composition” (priority 2003, published 2004)
≈ marks a conversion by molar mass, not a printed value. Where “and” joins values, the source holds several entries; their conditions need not be identical. Equal values may be shown once. Read-outs that look alike come from different tables or passages of the source.

Columns and labels:
[1] = system: promastigote stage of Leishmania mexicana; assay: Antiparasitic activity on the promastigote form of Leishmania (MTT); assay type: cell-based
[2] = system: Candida albicans (strain n° CA980001); assay: Antifungal activity on a clinical strain of Candida albicans (MTT colorimetric microplate test); assay type: cell-based; details: for MIC / CMI or CI80 Candida albicans (CA980001): strain CA980001; for MIC: read-out: CMI or CI80 Candida albicans (CA980001); for activity of inhibition of Candida albicans (in words): summary of Tables 27 to 40
[3] = system: Aspergillus fumigatus (strain n°AF 980003); assay: Antifungal activity on a clinical strain of Aspergillus fumigatus (Alamar Blue microplate test); assay type: cell-based; details: strain AF980003; for MIC: Aspergillus fumigatus, read-out: CMI or CI80 Aspergillus fumigatus (AF980003)
[4] = system: Candida albicans (CA98001); assay: Antifungal activity in vivo on a model of disseminated candidiasis; set-up: species or system female Swiss mice
[5] = system: Leishmania major; assay: Anti-leishmanian activity in vivo on a model of cutaneo-mucosal and visceral leishmaniasis; set-up: species or system male BALB/c mice
Method: (1999), Croft et al. (1993) and Hill et al. (1983). The animals used (Centre d'élevage R. Janvier, Le Genest-St-France) were male BALB/c mice, aged 7 weeks at the time of inoculation of the parasites. This operation was performed in accordance with the legislation relating to animal experimentation. […] Days after the inoculation, the treatment was administered intraperitoneally for 10 days. Three weeks after the treatment, its effectiveness was determined by determining the parasite level in the liver, spleen, popliteal ganglion and the cutaneous lesion.

[6] = system: intracellular amastigote form of Leishmania mexicana; assay: Anti-leishmanian activity on the amastigote form in peritoneal macrophages of BALB/c mice; assay type: cell-based; details: for IC50: Leishmania mexicana, Peritoneal macrophage, read-out: CI50 Intracellular amastigotes
[7] = system: Candida parapsilosis (2 strains); assay: Antifungal activity in vitro on clinical strains of Candida: parapsilosis (2 strains); assay type: cell-based
[8] = system: Candida albicans (4 strains); assay: Antifungal activity in vitro on clinical strains of Candida: albicans (4 strains); assay type: cell-based; details: for activity against strains of Candida albicans (in words): clinical strains
[9] = system: Candida krusei (4 strains); assay: Antifungal activity in vitro on clinical strains of Candida: krusei (4 strains); assay type: cell-based
[10] = system: Candida lusitaniae (1 strain); assay: Antifungal activity in vitro on clinical strains of Candida: lusitaniae (1 strain); assay type: cell-based; details: for CI80 on clinical strains of Candida: strain CL980001 (Candida lusitaniae); for activity against Candida lusitaniae (in words): clinical strain
[11] = Leishmania mexicana; promastigotes; 36 h at 26° C., MTT; read-out: CI50 Leishmania mexicana Promastigotes
[12] = Candida albicans, 24 h at 37° C., MTT
[13] = Leishmania mexicana; read-out: CI50 Leishmania mexicana Promastigotes
[14] = compound 45 intraperitoneally for 10 days, dose not given, three weeks after treatment
[15] = strain CP980002 (Candida parapsilosis)
[16] = strain CA980001 (Candida albicans)
[17] = Test N°3, ketoconazole 20 mg/kg/d for 5 d
[18] = strain CK980002 (Candida krusei)
[19] = strain CK980003 (Candida krusei)
[20] = strain CK980004 (Candida krusei)
[21] = promastigotes; read-out: CI50 Leishmania mexicana Promastigotes
[22] = strain CP980001 (Candida parapsilosis)
[23] = strain CA980002 (Candida albicans)
[24] = strain CA980003 (Candida albicans)
[25] = strain CA980005 (Candida albicans)
[26] = strain CK980001 (Candida krusei)

## CCn1cc(C(c2ccc(Cl)cc2Cl)n2cncn2)c2cc(Br)ccc21 (stereo not drawn) [Cpsé 47, 5-Bromo-1-ethyl-3-[(2,4-dichlorophenyl)(1H-1,2,4-triazol-1yl)methyl]-1H-indole]
[1]; [11]
  IC50: 25 µM and 8.07 µg/mL
[2]; [12]
  MIC: > 100 µM
other
  melting point: 124 to 126 °C
[3]; Alamar Blue
  MIC: > 100 µM

## CCN1CCc2cc(Br)cc(C(c3ccc(F)cc3)n3ccnc3)c21 (stereo not drawn) [Cpsé 51, 5-Bromo-1-ethyl-7-[(4-fluorophenyl)(1H-imidazol-1-yl)methyl]indoline]
[1]; [11]
  IC50: 59.2 µM and 23.8 µg/mL
[2]; [12]
  MIC: > 100 µM
other
  melting point: 120 to 123 °C
[3]; Alamar Blue
  MIC: > 100 µM

## Clc1ccc(Cn2cc(CCn3ccnc3)c3ccccc32)cc1 [Cpsé 59, 1-(4-Chlorobenzyl)-3-(2-1H-imidazol-1-ylethyl)-1H-indole]
other
  melting point: 78 to 80 °C

## Clc1ccc(Cn2cc(C3(Cn4ccnc4)CCCC3)c3ccccc32)cc1 [Cpsé 63, 1-[1-(4-Chlorobenzyl)-1H-indol-3yl]-1-(1H-imidazol-1-ylmethyl)cyclopentane]
other
  melting point: 91 to 92 °C

## OC(Cn1cncn1)(Cn1ccc2ccccc21)c1ccc(Cl)cc1Cl (stereo not drawn) [Cpsé 78, 2-(2,4-Dichlorophenyl)-1-(1,2,4-1H-triazol-1-yl)-3-(indol-1-yl)propan-2-ol]
[1]
  activity against Leishmania mexicana (in words): most active
[1]; [13]
  IC50: 0.1 µg/mL and 230 nM
[2]; Candida albicans, 24 h
  MIC: > 100 µM
[4]; Test N°3, 3 × 20 mg/kg/d for 5 d intraperitoneal
  parasite level in the kidneys compared with the control group (in words): significant reduction
[3]
  MIC: > 100 µM
[5]; [14]
  reduction of the hepatic parasite level: 79%
  reduction of the spleen parasite level: 98.9%
[6]
  activity against the intracellular amastigote form of Leishmania (in words): very active
[6]; intracellular amastigote form
  IC50: 1.5 ± 0.01 µg/mL (≈ 3.87 µM)

## Brc1ccc(C(Cn2ccc3ccccc32)n2ccnc2)cc1 (stereo not drawn) [Cpsé 84, 1-[2-(4-Bromophenyl)-2-(1H-imidazol-1-yl)ethyl]-1H-indole]
[1]
  activity against Leishmania mexicana (in words): most active
[1]; [13]
  IC50: 0.16 µg/mL and 370 nM
[2]; Candida albicans, 24 h
  MIC: > 100 µM
[3]
  MIC: > 100 µM
[6]
  activity against the intracellular amastigote form of Leishmania (in words): very active
[6]; intracellular amastigote form
  IC50: 3.1 ± 0.04 µg/mL (≈ 8.46 µM)

## CNC[C@H](O)[C@@H](O)[C@H](O)[C@H](O)CO.[O]=[Sb](=[O])[OH] [Glucantime ®, meglumine antimoniate, reference compound]
[1]
  CI50 Leishmania mexicana Promastigotes: 15000 ± 260 µg/mL
[5]; Glucantime 10 mg/Kg/d, 10 days
  reduction of the hepatic parasite level: 74%
  reduction of the spleen parasite level: 82%
[6]
  IC50 on the amastigote stage of Leishmania mexicana: 48.7 µg/mL

## CC(=O)N1CCN(c2ccc(OCC3COC(Cn4ccnc4)(c4ccc(Cl)cc4Cl)O3)cc2)CC1 (stereo not drawn) [Ketoconazole, ketoconazole, reference compound]
[1]; Leishmania mexicana, read-out: CI50 Leishmania mexicana Promastigotes
  IC50: 3 ± 0.5 µg/mL
[7]; [15]
  CI80 on clinical strains of Candida: <0.01 µM
[2]; Candida albicans, 24 h
  MIC: 0.0094 µM (≈ 0.005 µg/mL)
[2]
  CMI or CI80 Candida albicans (CA980001): 0.005 µg/mL
[8]; [16]
  CI80 on clinical strains of Candida: 0.005 µM
[4]; Test N°1, ketoconazole 20 mg/kg/d for 5 d
  survival at D14: 88%
[4]; Test N°2, ketoconazole 10 mg/kg/d for 5 d
  survival at D14: Ketoconazole: no survival at D14.
[4]; [17]
  survival at D14: 88%
  survival at D18: 50%
[4]; Test N°4, ketoconazole 20 mg/kg/d for 5 d
  survival at D10: 50%
[9]; [18]
  CI80 on clinical strains of Candida: 0.7 ± 0.02 µM
[9]; [19]
  CI80 on clinical strains of Candida: 0.8 ± 0.02 µM
[9]; [20]
  CI80 on clinical strains of Candida: <0.01 µM
[10]
  CI80 on clinical strains of Candida: <0.01 µM
[6]
  IC50: 1.3 ± 0.2 µg/mL (≈ 2.45 µM)

## OC(Cn1ccnc1)(Cn1ccc2ccccc21)c1ccc(Cl)cc1 (stereo not drawn) [compound 74]
[1]; promastigotes
  CI50 Leishmania mexicana Promastigotes: 5 ± 0.2 µg/mL (≈ 14.2 µM)
[1]; [21]
  IC50: 15.1 ± 0.6 µM
[7]; clinical strains
  activity against Candida parapsilosis (in words): very active
[7]; [22]
  CI80 on clinical strains of Candida: 0.69 ± 0.03 µM
[7]; [15]
  CI80 on clinical strains of Candida: 3.71 ± 1.246 µM
[2]
  CMI or CI80 Candida albicans (CA980001): 0.02 µg/mL
  MIC: 0.07 µM (≈ 0.0246 µg/mL)
  activity of inhibition of Candida albicans (in words): most active
[8]
  activity against strains of Candida albicans (in words): very active
[8]; [16]
  CI80 on clinical strains of Candida: 0.061 ± 0.004 µM
[8]; [23]
  CI80 on clinical strains of Candida: 0.47 ± 0.017 µM
[8]; [24]
  CI80 on clinical strains of Candida: 0.07 ± 0.0047 µM
[8]; [25]
  CI80 on clinical strains of Candida: 0.3 ± 0.024 µM
[3]
  CMI or CI80 Aspergillus fumigatus (AF980003): 83 ± 4 μM and 29 ± 1 μg/mL
[9]; [26]
  CI80 on clinical strains of Candida: 59.29 ± 1.33 µM
[9]; [18]
  CI80 on clinical strains of Candida: 7.74 ± 0.13 µM
[9]; [19]
  CI80 on clinical strains of Candida: >100 µM
[9]; [20]
  CI80 on clinical strains of Candida: >100 µM
[10]
  activity against Candida lusitaniae (in words): very active
  CI80 on clinical strains of Candida: 0.63 ± 0.01 µM

## OC(Cn1ccnc1)(Cn1ccc2ccccc21)c1ccc(Cl)cc1Cl (stereo not drawn) [compound 75]
[1]; promastigotes
  CI50 Leishmania mexicana Promastigotes: 1.47 µg/mL (≈ 3.81 µM)
[1]; [21]
  IC50: 4 µM
[7]; [22]
  CI80 on clinical strains of Candida: 1.0 ± 0.1 µM
[7]; [15]
  CI80 on clinical strains of Candida: 0.86 ± 0.04 µM
[2]
  MIC: <0.001 µM
  activity of inhibition of Candida albicans (in words): most active
[8]
  activity against strains of Candida albicans (in words): active
[8]; [16]
  CI80 on clinical strains of Candida: <0.001 µM
[8]; [23]
  CI80 on clinical strains of Candida: 0.65 ± 0.01 µM
[8]; [24]
  CI80 on clinical strains of Candida: 0.64 ± 0.01 µM
[8]; [25]
  CI80 on clinical strains of Candida: 0.71 ± 0.01 µM
[4]; Test N°1, 20 mg/kg/d for 5 d
  activity on survival at the end of the experiment (D14) (in words): not on survival at the end of the experiment
  activity on the survival at D4-D5 (in words): slight activity
[4]; Test N°1, day 8 (D8), daily dose of 20 mg/kg
  survival improved compared to the control batch: 25%
[4]; Test N°2, 2 × 30 mg/kg/d for 5 d intraperitoneally
  survival at D14: Compound 75: no survival at end of experiment (D14).
[4]; Test N°2, 2 × 30 mg/kg/d for 5 d intraperitoneally, monitored 14 days (78: from D9 to D14)
  effect of treatment on the survival of the animals (in words): ineffective
[3]
  CMI or CI80 Aspergillus fumigatus (AF980003): 4 ± 0 μM and 1 ± 0 μg/mL
[9]; clinical strains, b748: one strain
  activity against Candida krusei (in words): active
[9]; [26]
  CI80 on clinical strains of Candida: 0.62 ± 0.002 µM
[9]; [19]
  CI80 on clinical strains of Candida: >1 µM
[9]; [20]
  CI80 on clinical strains of Candida: 4.2 ± 0.1 µM
[10]
  CI80 on clinical strains of Candida: 0.3 ± 0.1 µM

## OC(Cn1ccnc1)(Cn1ccc2ccccc21)c1ccc(F)cc1 (stereo not drawn) [compound 76]
[1]; promastigotes
  CI50 Leishmania mexicana Promastigotes: 3 ± 0.03 µg/mL (≈ 8.95 µM)
[1]; [21]
  IC50: 9.2 ± 0.09 µM
[7]; [22]
  CI80 on clinical strains of Candida: 4.10 ± 0.35 µM
[7]; [15]
  CI80 on clinical strains of Candida: 6.32 ± 0.14 µM
[2]
  CMI or CI80 Candida albicans (CA980001): 0.03 µg/mL
  MIC: 0.08 µM (≈ 0.0268 µg/mL)
  activity of inhibition of Candida albicans (in words): most active
[8]
  activity against strains of Candida albicans (in words): very active
[8]; [16]
  CI80 on clinical strains of Candida: 0.067 ± 0.005 µM
[8]; [23]
  CI80 on clinical strains of Candida: 0.61 ± 0.022 µM
[8]; [24]
  CI80 on clinical strains of Candida: 0.25 ± 0.11 µM
[8]; [25]
  CI80 on clinical strains of Candida: 0.44 ± 0.044 µM
[3]
  CMI or CI80 Aspergillus fumigatus (AF980003): 88 ± 2 μM and 30 ± 0.7 μg/mL
[9]; [26]
  CI80 on clinical strains of Candida: 65.38 ± 3.71 µM
[9]; [18]
  CI80 on clinical strains of Candida: 38.05 ± 7.24 µM
[9]; [19]
  CI80 on clinical strains of Candida: 85.27 ± 0.324 µM
[9]; [20]
  CI80 on clinical strains of Candida: >100 µM
[10]
  activity against Candida lusitaniae (in words): very active
  CI80 on clinical strains of Candida: 0.69 ± 0.08 µM
